The source of these data is patent EP2874610B1, “MULTILAYERED PHARMACEUTICAL FORMULATION” (Recordati Industria Chimica E Farmaceutica SPA, priority 2012, dated 2014).

Data set [1] can be described thus: Dissolution test by immersion into simulated gastric fluid (USP apparatus II), then pH raised to 7.2. The data set is classed as physicochemical. Here is the method: The dissolution profile of the trilayered tablets prepared as described in examples 1, 2 and 3 was determined by immersion into simulated gastric fluid (USP apparatus II for dissolution test).
After immersion, the tablets (n = 6) placed themselves on the bottom of the vessel and the development of CO2 bubbles which remained entrapped into the hydroxypropylmethylcellulose gel formed in contact with the aqueous medium was observed from layer A. At the same time, layer B rapidly disintegrated in correspondence with the side surface of the layer exposed to the simulated gastric fluid.
The dissolution profile of the trilayered tablets prepared as described in examples 6, and 7 was determined by immersion into simulated gastric fluid (USP apparatus II for dissolution test).

A further data set is described as follows: clinical. Particulars: for AUC(0-inf): AUCinf; for time plasma levels were maintained at plateau: three layer tablet of example 4, Figure 6. How it is done: A three layer tablet of gabapentin 375 mg and flurbiprofen 37.5 mg, prepared as described in example 4, was administered to 24 healthy male and female subjects, 18-55 years old, in fasting conditions and after a high fat meal in single dose according to a randomized cross-over design. The treatment periods were separated by a wash out interval of at least 5 days.
Each dose was taken with 240 mL of water in fasting conditions from at least 10 hours or 30 minutes after a standardized meal, which was high-caloric (approximately 1000 Kcal) and high-fat (approximately 50 percent of total caloric content of the meal).
Gabapentin and flurbiprofen plasma levels were determined by a validated HPLC/MS/MS analytical method at the following times: pre-dose, 0.5, 1, 1.5, 2, 3, 4, 5, 6, 7, 8, 10, 12, 16, 24 and 32 h post-dose.

Data set [2] can be described thus: Dissolution rate under simulated fasting and fed conditions (SGF pH 1.2, FaSSGF pH 1.6, FeSSGFm pH 5.0). The data set is classed as physicochemical. Particulars: tablets of example 2. How it is done: The dissolution rate of trilayered tablets prepared as described in example 2, was evaluated also under simulated fasting and fed conditions. The evaluation was carried out under the following conditions: simulated gastric fluid at pH1.2 (SGF), simulated gastric fluid at pH 1.6 (FaSSGF) for fasting conditions and simulated gastric fluid at pH 5.0 (FeSSGFm) for fed conditions.

Setting [3] is: both, human, in vivo, Fed conditions (high fat meal), three layer tablet of example 4, single dose, arithmetic mean ± s.d., n=24.
Setting [4] is: three layer tablet of example 4, single dose.

What is called AUC(0-inf) is the area under the concentration-time curve extrapolated to infinity. A higher AUC(0-inf) goes with high exposure. Usually Tmax stands for the time from dosing to the highest level. `CC(C(=O)O)c1ccc(-c2ccccc2)c(F)c1` (stereo not shown) [flurbiprofen]: the “release of flurbiprofen contained in layer C in simulated gastric fluid” value in data set [1] (tablets of example 1, before raising the pH) is given as “not released in the first hour”; in data set [1] (tablets of example 2, pH 1.2) it was “not released at pH 1.2”; in data set [1] (tablets of example 3, pH 1.2), “not released at pH 1.2”; in data set [1] (tablets of example 6, before raising the pH), “not released in the first hour”; in data set [1] (tablets of example 7, pH 1.2), “not released at pH 1.2”. Also, the “release of flurbiprofen contained in layer C after having raised the pH to 7.2” value in data set [1] (tablets of example 1, in 5 hours, linear release) is 100%; in data set [1] (tablets of example 2, in 6 hours, linear release) it was 90%; in data set [1] (tablets of example 3, in 6 hours, linear release) it was 90%; in data set [1] (tablets of example 6, in 5 hours), 100%; in data set [1] (tablets of example 7, in 7 hours, linear release), 90%. For the same compound, the “Ratio of geometric means, AUCinf, Test / Reference (Fed / fasting)” value in the data set “clinical” (both, human, in vivo) is 98%. Also, the “Ratio of geometric means, Cmax, Test / Reference (Fed / fasting)” value in “clinical” (both, human, in vivo) was 157%. Further, the “time after intake up to which release was very low” value in the data set “clinical” (both, human, in vivo) was “up to 2 hours”. The “time post dose at which plasma levels reached a plateau” value in the data set “clinical” (both, human, in vivo) was “around 4 hour”. The compound also registered a total exposure AUC(0-inf) in “clinical” (both, human, in vivo) of 35700 ± 13200 ng·h/mL. Further, in “clinical” (both, human, in vivo), the Tmax came out at 12 h.
One may read the Cmax as the highest concentration seen after dosing. `NCC1(CC(=O)O)CCCCC1` [gabapentin]: the “f2 factor, similarity index between SGF and FaSSGF release profiles” value in data set [2] (pH 1.2 vs pH 1.6) is 83. For the same compound, the “f2 factor, similarity index between SGF and FeSSGFm release profiles” value in data set [2] (pH 1.2 vs pH 5.0) is 65.8. In addition, the “f2 factor, similarity index between FaSSFG and FeSSGFm release profiles” value in data set [2] (pH 1.6 vs pH 5.0) is 55.7. Also, the “comparison of dissolution profiles in SGF, FaSSGF and FeSSGFm” value in data set [2] (result in words) is reported as “did not show significant differences”. Further, the “release time of gabapentin contained in layer B” value in data set [1] (tablets of example 1) is ≤ 5 min; in data set [1] (tablets of example 2), ≤ 15 min; in data set [1] (tablets of example 3), ≤ 15 min; in data set [1] (tablets of example 6) it was ≤ 15 min; in data set [1] (tablets of example 7), ≤ 15 min. Also, the “release time of remaining dose of gabapentin contained in layer A” value is recorded as “about 8 hours” in data set [1] (tablets of example 1, slow prolonged release); “about 9 hours” in data set [1] (tablets of example 2, slow prolonged release); “about 9 hours” in data set [1] (tablets of example 3, slow prolonged release); “about 9 hours” in data set [1] (tablets of example 7, slow prolonged release). The “release of remaining dose of gabapentin contained in layer A” value in data set [1] (tablets of example 6, in about 9 hours, slow prolonged release) was 90%. For the same compound, the AUC(0-inf) in “clinical” (both, human, in vivo, Fasting conditions, three layer tablet of example 4, single dose, arithmetic mean ± s.d., n=24) turned out to be 24100 ± 8150 ng·h/mL; in the data set “clinical” (setting [3]), 39200 ± 9070 ng·h/mL. The maximum concentration (Cmax) came to 2340 ± 748 ng/mL in the data set “clinical” (both, human, in vivo, Fasting conditions, three layer tablet of example 4 (gabapentin 375 mg, flurbiprofen 37.5 mg), single dose, arithmetic mean ± s.d., n=24) and 3080 ± 727 ng/mL in the data set “clinical” (setting [3]). The Tmax in the data set “clinical” (both, human, in vivo, Fasting conditions, three layer tablet of example 4, single dose, median (min - max), n=24) turned out to be 4 h; in “clinical” (both, human, in vivo, Fed conditions (high fat meal), three layer tablet of example 4, single dose, median (min - max), n=24), 5 h. The “time plasma levels were maintained at plateau” value is “about 4 hours” in the data set “clinical” (fasting conditions) and 8 h in “clinical” (fed conditions). The “Ratio of geometric means, AUCinf, Test / Reference (Fed / fasting)” value in “clinical” (setting [4]) came out at 167%. Moreover, the “Ratio of geometric means, Cmax, Test / Reference (Fed / fasting)” value in the data set “clinical” (setting [4]) worked out at 136%.
